Experimental data: US10072021B2, “Compound for inhibiting binding between DX2 protein and P14/ARF protein, and pharmaceutical composition for treating or preventing cancer disease containing same as effective ingredient” (PUSAN NATIONAL UNIVERSITY INDUSTRY-UNIVERSITY COOPERATION …, priority 2014, dated 2018)
Entries after “also recorded” stand apart in the source; their conditions may differ.

Key:
[1] = target: T1, p53-p14/ARF interaction (Homo sapiens, UniProt P04637+Q8N726); assay: GST pull-down assay, selectivity: p53-p14/ARF interaction; assay type: binding; conditions: FIG. 3D, 3E
T1 construct: a p14/ARF fragment (full-length) was ligated into EcoRI and Hind II sites of pGEX-TEV vector; made in house; host or cells: E. coli BL21(DE3) for GST-p14/ARF
T1 sequence (Q8N726 whole entry, the tested form may be a part): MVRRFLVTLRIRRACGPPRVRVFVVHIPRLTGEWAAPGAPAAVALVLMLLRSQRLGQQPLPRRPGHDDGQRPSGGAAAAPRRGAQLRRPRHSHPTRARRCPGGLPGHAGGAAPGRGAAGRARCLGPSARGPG
T1 sequence (P04637 whole entry, the tested form may be a part): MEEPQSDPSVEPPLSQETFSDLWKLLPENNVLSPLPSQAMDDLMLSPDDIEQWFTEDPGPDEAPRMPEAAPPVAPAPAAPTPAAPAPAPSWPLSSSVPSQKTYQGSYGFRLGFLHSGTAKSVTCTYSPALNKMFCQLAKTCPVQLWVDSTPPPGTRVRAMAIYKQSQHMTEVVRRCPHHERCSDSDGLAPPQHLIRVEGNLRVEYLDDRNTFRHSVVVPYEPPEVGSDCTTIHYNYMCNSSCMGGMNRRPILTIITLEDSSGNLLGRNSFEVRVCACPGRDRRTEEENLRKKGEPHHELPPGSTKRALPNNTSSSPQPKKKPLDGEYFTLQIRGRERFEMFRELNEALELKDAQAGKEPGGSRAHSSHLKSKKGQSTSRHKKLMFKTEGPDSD
Source text: (§1) Through GST pull-down assays, more specific binding inhibitors were selected among the previously screened candidate drugs as DX2-p14/ARF binding inhibitors. That is, a p14/ARF fragment (full-length) was ligated into EcoRI and Hind II sites of pGEX-TEV vector, which is a modified vector by adding a TEV protease cleavage site to pGEX-4T1. The recombinant proteins were then expressed in E. coli strain BL21(DE3) as GST-fusion proteins. The proteins were purified by glutathione affinity chromatography.
(§2) To address direct binding between the two proteins, agarose-bead conjugated GST (negative control) or GST-target protein was incubated with cell lysate or recombinant protein in radioimmunoprecipitation assay (RIPA) buffer (NaCl, 25 mM Tris-Cl, 1% NP-40, 1% sodium deoxycholate, 0.1% SDS, protease inhibitor mixture) for 1 hour at a temperature of 4° C. for a reaction.

[2] = test system: human lung cancer cell lines; assay: MTT viability of various human lung cancer cell lines; assay type: cell-based; conditions: 24 hours, MTT assay, FIG. 5
Procedure: (§3) By MTT assay, anticancer effects were confirmed based on viability of tumor cells. That is, cells were incubated in 0.5 mg/ml of MTT solution for 4 hours at a temperature of 37° C. for a reaction, and then, formazen products formed therefrom were dissolved in dimethyl sulfoxide (DMSO). Then, absorbance thereof was measured at 540 nm by using a spectrometer.

[3] = test system: H69 and H322 cells; assay: Sensitivity of lung cancer cell lines to combinational treatment with Adriamycin and SLCB050; assay type: cell-based, human; conditions: combinational treatment with Adriamycin, FIG. 8C
Procedure: as §3

[4] = target: T2, DX2-p14/ARF binding (Homo sapiens, UniProt Q13155); assay: GST pull-down assay of DX2-p14/ARF binding; conditions: FIG. 2A, 3A, 3D, 3E
T2 construct: made in house; host or cells: E. coli BL21(DE3) for GST-p14/ARF; DX2 from 'cell lysate or recombinant protein'
T2 sequence (Q13155 1-251 isoform Q13155-2): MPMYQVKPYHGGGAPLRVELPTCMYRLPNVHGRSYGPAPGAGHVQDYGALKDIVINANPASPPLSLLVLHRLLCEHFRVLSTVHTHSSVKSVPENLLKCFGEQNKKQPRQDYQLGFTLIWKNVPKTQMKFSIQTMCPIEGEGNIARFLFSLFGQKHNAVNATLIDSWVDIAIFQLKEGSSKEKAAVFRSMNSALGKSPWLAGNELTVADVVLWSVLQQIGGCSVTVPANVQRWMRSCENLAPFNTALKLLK
Source text: as §1, §2

[5] = test system: p53-AIMP2 or DX2 binding; assay: GST pull-down assay, selectivity: p53-AIMP2 or DX2 binding; conditions: FIG. 3B
Source text: as §1, §2

[6] = target: T3, DX2-p14/ARF binding (His-DX2, GST-p14/ARF) (Homo sapiens, UniProt Q13155); assay: ELISA-based screening for inhibitors of DX2-p14/ARF binding; conditions: ELISA values at 450 nm
T3 construct: made in house; host or cells: E. coli BL21(DE3) (stated for the GST fusion)
T3 sequence (Q13155 1-251 isoform Q13155-2): T2 sequence (Q13155 1-251 isoform Q13155-2)
Procedure: In detail, referring to drawings, the compound according to an embodiment of the present invention which is a specific binding inhibitor of DX2 and p14/ARF was screened by using an ELISA-based screening method of FIG. 1. Based on the screening reaction system, increases in ELISA values with increasing concentrations of p14/ARF were measured. […] Thus, by using the ELISA-based screening method, compounds that are specific binding inhibitors of DX2 and p14/ARF were primarily screened.
That is, 0.5% His-DX2 recombinant proteins were immobilized on a 96-well plate with paraformaldehyde (PFA). After performing drying and cleaning processes, GST-p14/ARF proteins were allowed to react with a random compound (final concentration: 0.1 mM). After 1 hour, the plate was washed using TBS-T, and then, incubated with anti-GST antibodies (1:10,000, 30 minutes) and anti-mouse-IgG-HRP (1:50,000, 1 hour). After performing a washing process twice, the plate was incubated with 3,3′,5,5′-tetramethylbenzidine (TMB) solution (Calbiochem) and stop solution (1N H2SO4) for a reaction. Afterwards, by using an ELISA reader, values were measured at 450 nm, thereby selecting candidate drugs as DX2-p14/ARF binding inhibitors. […]

[7] = test system: H128 cells (SCLC cell line); assay: MTT viability of H128 cells; assay type: cell-based, human; conditions: MTT assay, FIG. 7
Procedure: as §3

[8] = test system: p53; assay: p53 induction in primary tumor cells (western blotting); assay type: cell-based; conditions: combinational treatment with Adriamycin and SLCB050, primary tumor cells from DX2 or DK mouse, FIG. 9C
Procedure: To carry out western blot analysis, proteins were thermally inactivated in RIPA buffer (heat treatment for 7 minutes at a temperature of 95° C.), and then, the resulting proteins were applied to SDS-PAGE, followed by western blot analysis according to a known method in the art (J. Clin. Oncol. 16, 1207-1217, 1998; Nat. Rev. Cancer 2, 489-501, 2002). Antibodies used herein, e.g., HA (sc-7392), His (sc-8036), GFP (sc-9996), GST (sc-138), Actin (se-1616), and p19/ARF (sc-32748), were purchased from Santa Cruz Biochnology, anti-p14/ARF (MAB3782) was purchased from Millipore, and FLAG-M2 and anti-C-Myc (M5546) were purchased from Sigma Aldrich. In addition, anti-AIMP2 was provided from Professor. Kim, Sung-Hoon (Seoul Nat. Univ.).

[9] = target: T4, DX2-p14/ARF interaction (Homo sapiens, UniProt Q13155); assay: Immunoprecipitation analysis of DX2-p14/ARF interaction in cotransfected 293 cells; assay type: cell-based; conditions: MG132, SLCB050 10 μM, 6 hours, IP with Myc antibodies
T4 construct: expressed in transfected cells; host or cells: 293 (HEK293) cells
T4 sequence (Q13155 1-251 isoform Q13155-2): T2 sequence (Q13155 1-251 isoform Q13155-2)
Procedure: Here, contransfected 293 cells were allowed to react with MG132 before immunoprecipitation analysis to prevent reduction of two proteins, and after performing SLCB050 treatment (10 μM, 6 hours), immunoprecipitation assay was performed on the cells by using Myc antibodies (DX2).
Here, 293 cells were transfected with indicating vectors for 24 hours and was allowed to react with MG132 and SLCB050 for 6 hours.
Immunoprecipitation (IP) assay was performed with cell lysate or recombinant protein with RIPA buffer. The whole lysates were incubated with suitable antibodies for 2 hours at a temperature of 4° C. for a reaction, and then, the mixtures were added with A/G-agarose beads-conjugated secondary antibody (Invitrogen, Carlsbad, Calif., USA) for 2 hours. After incubation for a reaction, the mixtures were washed using RIPA buffer twice, and precipitated proteins were determined by western blot analysis.

For CC1(C)Oc2cc3oc(=O)ccc3cc2C[C@@H]1OC(=O)/C=C/c1ccco1 [SLCB050, (7S)-(+)-3-(2-Furanyl)-acrylic acid, 8,8-dimethyl-2-oxo-6,7-dihydro-2H,8H-pyrano[3,2-g]chromen-7-yl-ester], the “effect on interaction of p53-p14/ARF” value [1] was “did not affect the interaction of p53-p14/ARF”, the “viability of SCLC cells” value [2] was “very sensitive” and the “viability of p14/ARF-deficient cell lines” value [2] was “resistant”. The “sensitivity to Adriamycin in SCLC cell line H69” value [3] was “sensitivity to Adriamycin improved”, the “sensitivity to Adriamycin in p14/ARF-deficient H322 cells” value [3] was “did not show improved sensitivity” and the “inhibitory effect on DX2-p14/ARF binding” value [4] was “completely blocked; also recorded: showed inhibitory effects on DX2-p14/ARF binding”. The “inhibition of p53-AIMP2 or DX2 binding” value [5] was “not on p53-AIMP2 or DX2 binding”, the “ELISA reaction of DX2-p14/ARF binding” value [6] was “considerably reduced” and the “viability of H128 cells” value [7] was “reduced the viability of H128 cells in a dose-dependent manner”. For the same compound, the “p53 induction in primary tumor cells” value [8] was “induced p53 synergistically” and the “interaction of p14/ARF with DX2 in cells” value [9] was “inhibited the interaction of p14/ARF with DX2 in cells”.
